Values of other authors, collected in paper PMC10238757 (Pharmacology Research & Perspectives, 2023).

What was measured:
[1] = at higher doses; cited from earlier work
[2] = system: HIV-1; settings: cited from earlier work

SMILES	absorption behaviour [1]	potency in vitro [2]
C=C(C)[C@@H]1CC[C@]2(NCCN3CCS(=O)(=O)CC3)CC[C@]3(C)[C@H](CC[C@@H]4[C@@]5(C)CC=C(c6ccc(C(=O)O)cc6)C(C)(C)[C@@H]5CC[C@]43C)[C@@H]12 [GSK3532795]	plateaus in absorption	–
C=C(C)[C@@H]1CC[C@]2(NCCN3CCS(=O)(=O)CC3)CC[C@]3(C)[C@H](CC[C@@H]4[C@@]5(C)CC=C(C6=CC[C@@](CF)(C(=O)O)CC6)C(C)(C)[C@@H]5CC[C@]43C)[C@@H]12 [GSK3640254, reference compound]	plateaus in absorption	low nanomolar
